Biological target: T1, human caspase 6 lacking the pro-domain (Homo sapiens, UniProt P55212)
T1 sequence (P55212 with tags, fused parts or gaps): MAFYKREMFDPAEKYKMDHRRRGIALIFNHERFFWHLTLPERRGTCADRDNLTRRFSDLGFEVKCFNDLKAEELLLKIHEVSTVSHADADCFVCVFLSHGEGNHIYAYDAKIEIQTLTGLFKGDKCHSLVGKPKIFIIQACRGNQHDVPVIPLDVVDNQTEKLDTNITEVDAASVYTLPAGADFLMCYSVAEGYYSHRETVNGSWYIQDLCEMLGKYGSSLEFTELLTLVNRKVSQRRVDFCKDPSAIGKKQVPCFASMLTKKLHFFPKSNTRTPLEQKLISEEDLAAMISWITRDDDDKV
Test: Intracellular Htt cleavage by Western blot in co-transfected COS-7 cells
Format: cell-based
Set-up: DDK-tag (C); expressed in transfected cells; host or cells: COS-7
Procedure: COS-7 cells were co-transfected with the 4c htt fragment and the human caspase-6 lacking the pro-domain which leads to fast autoactivation of the caspase-6 enzyme and the generation of the 586 aa Htt cleavage fragment. The co-transfected cells were exposed to either 10 uM of the PG3d compound, 3 uM of the Q-VD-Oph pan-caspase inhibitor or were left untreated. Non-transfected cells were included as a negative control and the purified 586 aa Htt fragment was included as a positive control. Cell lysates were subjected to Western blotting and the 586AA fragment generated intracellularly was detected with Htt antibody 2166 (Millipore). Caspase-6 expression and activation was assessed by Western blotting using antibody HD91 (Ehrnhoefer et al, HMG, 2014. 23(3):717-29).
COS-7 cells were co-transfected with the 4c htt fragment and the human caspase-6 lacking the pro-domain which leads to fast autoactivation of the caspase-6 enzyme and the generation of the 586 aa Htt cleavage fragment. […] Non-transfected cells were included as a negative control and the purified 586 aa Htt fragment was included as a positive control. […] The cell lysates were also assayed for the levels of active caspase 6 enzyme as shown in the lower panel of FIG. 5B.

O=c1oc(C#Cc2ccccc2)nc(O)c1Cc1ccccc1 [PG-3d, 5-Benzyl-4-hydroxy-2-(phenylethynyl)-6H-1,3-oxazin-6-one]
level of active caspase 6 enzyme (10 uM compound): decreased amount of active enzyme | generation of the 586 aa Htt cleavage fragment (10 uM compound vs untreated cells): significant reduction
